In patent US11661420B2 (NANJING HEPO PHARMACEUTICAL CO., LTD, priority 2019, dated 2023):

Experiments:
[1] = system: HBV surface antigen (HBsAg); experiment: Cryopreserved PHH assay, ELISA of hepatitis B surface antigen in culture supernatant; format: cell-based, type D HBV in human primary hepatocytes (PHH); settings: Hepatitis B virus, 240 h, read-out: HBsAg EC50
Method: (§1) The inhibitory effect of the compounds on HBV was evaluated by real-time quantitative qPCR assay (real time-qPCR) to detect the HBV DNA content in human primary hepatocytes (PHH) culture supernatant, and ELISA to detect the hepatitis B surface antigen and e antigen content, the EC50 value of the compounds was used as an indicator; meanwhile, the cell viability was detected by CellTiter-Glo to evaluate the toxicity of the compounds to cells.
(§2) 3.1. On day 0, PHH (1.32×10^5 cells/well) was seeded into a 48-well plate and incubated overnight at 37° C., 5% CO2.
(§3) 3.2. On the first day, PHH was infected with type D HBV (concentrated from HepDE19 cell culture supernatant).
(§4) 3.3 On the second day, the test compound was diluted to 7 concentrations with 5-fold serial dilution. Reference compound Peg-IFN-α 2a, 7 concentrations with 3-fold serial dilution. Compounds with different concentrations were added to the culture wells, and the wells were double-duplicated wells. The final concentration of DMSO in the culture medium was 2%.
(§5) 3.4 On the 4th, 6th, and 8th day, the culture medium was replaced by a fresh culture medium containing the compound.
(§6) 3.5 After collecting the culture supernatant from the culture well on the 10th day, the cell viability was tested with CellTiter-Glo. A portion of the culture supernatant was collected for ELISA determination to detect the content of hepatitis B virus surface antigen and e antigen; a portion of the sample was collected for extract DNA using a high-throughput DNA purification kit, referring to the product instructions for the specific steps.
(§7) 3.7 ELISA determination of hepatitis B virus surface antigen and e antigen
(§8) The specific steps can be referred to the product manual, the steps are briefly described as follows: 50 μL of sample and standard was added to the reaction plate respectively, 50 μL of enzyme conjugate was added to each well, the mixture was shaken and mixed well, then kept in a warm bath at 37° C. for 60 minutes, the plate was washed with washing solution for 5 times, 50 μL of the luminescent substrate was added to each well, the mixture was mixed well, and the reaction was carried out in the dark at room temperature for 10 minutes, and finally the chemiluminescence intensity was detected with the instrument.
(§9) Calculation of the inhibition percentage of HBV DNA, HBV surface antigen and e antigen. % Inh.=(1−value of the sample/value of DMSO control)×100.

[2] = system: HBV e antigen (HBeAg); experiment: Cryopreserved PHH assay, ELISA of hepatitis B e antigen in culture supernatant; format: cell-based, type D HBV in human primary hepatocytes (PHH); settings: Hepatitis B virus, 240 h, read-out: HBeAg EC50
Method: as §1, §2, §3, §4, §5, §6, §7, §8, §9

[3] = system: HBV DNA; experiment: Cryopreserved PHH assay, real-time qPCR of HBV DNA in culture supernatant; format: cell-based, type D HBV in human primary hepatocytes (PHH); settings: Hepatitis B virus, 240 h; PHH infected with type D HBV, supernatant day 10, qPCR
Method: as §1, §2, §3, §4, §5, §6
3.6 Quantitative PCR to detect the content of HBV DNA
The qPCR reaction mixture, sample and standard were added to the 384 well reaction plate. PCR reactions: 95° C., 10 min; 95° C., 15 sec, 60° C., 1 min, 40 cycles.
as §9

[4] = Cryopreserved PHH assay, cell viability by CellTiter-Glo; format: cell-based; settings: human, cryopreserved primary human hepatocytes (PHH), day 10, CellTiter-Glo
Method: as §1, §2, §4, §5, §6
Calculation of the percentage of cell viability: % viability=the luminescence value of the sample/the luminescence value of the DMSO control×100.

Structure (SMILES) | EC50 [1] | EC50 [2] | EC50 [3] | CC50 at 8 days [4]
O=C(O)C1CCN(c2ccc3c(=O)c4cccc(Cl)c4oc3c2)C1 (stereo not shown) [A, reference compound] | 9930 nM | 6880 nM | 576 nM | > 50000 nM
O=C(O)c1ccc(-c2csc(C3=NCc4cccc(Cl)c4N3)n2)cc1 [Compound I-1, 4-(2-(8-chloro-1,4-dihydroquinazolin-2-yl)thiazol-4-yl)benzoic acid] | 38100 nM | 18100 nM | 22200 nM | > 50000 nM
CC1N=C(c2nc(-c3ccc(C(=O)O)cc3)cs2)Nc2c(Cl)cccc21 (stereo not shown) [Compound I-2, 4-(2-(8-chloro-4-methyl-1,4-dihydroquinazolin-2-yl)thiazol-4-yl)benzoic acid] | 13.5 nM | 5.4 nM | 6.5 nM | > 50000 nM
CC1(C)N=C(c2nc(-c3ccc(C(=O)O)cc3)cs2)Nc2c(Cl)cccc21 [Compound I-4, 4-(2-(8-chloro-4,4-dimethyl-1,4-dihydroquinazolin-2-yl)thiazol-4-yl)benzoic acid] | 10.2 nM | 3.2 nM | 4.12 nM | > 50000 nM
O=C(O)c1ccc(-c2csc(C3=NC4(CC4)c4cccc(Cl)c4N3)n2)cc1 [Compound I-5, 4-(2-(8′-chloro-1′H-spiro[cyclopropyl-1,4′-quinazolin]-2′-yl)thiazol-4-yl)benzoic acid] | 105 nM | 9 nM | 11 nM | > 50000 nM
O=C(O)c1ccc(-c2csc(C3=NC4(COC4)c4cccc(Cl)c4N3)n2)cc1 [Compound I-11, 4-(2-(8′-chloro-1′H-spiro[oxetanyl-3,4′-quinazolin]-2′-yl)thiazol-4-yl)benzoic acid] | 163 nM | 17 nM | 21 nM | > 50000 nM
O=C(O)c1ccc(-c2csc(-c3cc(=O)c4cccc(Cl)c4[nH]3)n2)cc1 [Compound I-13, 4-(2-(8-chloro-4-oxo-1,4-dihydroquinolin-2-yl)thiazol-4-yl)benzoic acid] | > 50000 nM | > 5000 nM | > 5000 nM | > 50000 nM
O=C(O)c1ccc(-c2ccc(-c3cc(=O)c4cccc(Cl)c4o3)cc2)cc1 [Compound I-14, 4′-(8-chloro-4-oxo-4H-benzopyran-2-yl)-[1.1′-biphenyl)-4-carboxylic acid] | > 50000 nM | > 20000 nM | > 20000 nM | > 50000 nM
O=C(O)c1ccc(-c2csc(-c3cc(=O)c4cccc(Cl)c4o3)n2)cc1 [Compound I-19, 4-(2-(8-chloro-4-oxo-4H-benzopyran-2-yl)thiazol-4-yl)benzoic acid] | 39600 nM | ~15000 nM | 28400 nM | > 50000 nM
CC1(C)N=C(c2nc(-c3ccc(C(=O)O)cc3)cs2)Nc2ccccc21 [Compound I-20, 4-(2-(4,4-dimethyl-1,4-dihydroquinazolin-2-yl)thiazol-4-yl)benzoic acid] | 32 nM | 4 nM | 5 nM | > 50000 nM
CC1(C)N=C(c2nc(-c3ccc(C(=O)O)cc3)cs2)Nc2c(F)cccc21 [Compound I-21, 4-(2-(8-fluoro-4,4-dimethyl-1,4-dihydroquinazolin-2-yl)thiazol-4-yl)benzoic acid] | 16.5 nM | 4.8 nM | 6.9 nM | > 50000 nM
CC1(C)N=C(c2nc(-c3ccc(C(=O)O)cc3)cs2)Nc2c(Br)cccc21 [Compound I-22, 4-(2-(8-bromo-4,4-dimethyl-1,4-dihydroquinazolin-2-yl)thiazol-4-yl)benzoic acid] | > 50000 nM | 3.8 nM | 10 nM | > 50000 nM
CC1(C)N=C(c2nc(-c3ccc(C(=O)O)cc3)cs2)Nc2c(C(F)(F)F)cccc21 [Compound I-23, 4-(2-(4,4-dimethyl-8-trifluoromethyl-1,4-dihydroquinazolin-2-yl)thiazol-4-yl)benzoic acid] | > 50000 nM | 2 nM | 8.3 nM | > 50000 nM
CC1(C)N=C(c2nc(-c3ccc(C(=O)O)cc3)cs2)Nc2cc(Cl)ccc21 [Compound I-25, 4-(2-(7-chloro-4,4-dimethyl-1,4-dihydroquinazolin-2-yl)thiazol-4-yl)benzoic acid] | 440 nM | 63.2 nM | 98.8 nM | > 50000 nM
CC1(C)N=C(c2nc(-c3ccc(C(=O)O)cc3)cs2)Nc2ccc(Cl)cc21 [Compound I-27, 4-(2-(6-chloro-4,4-dimethyl-1,4-dihydroquinazolin-2-yl)thiazol-4-yl)benzoic acid] | > 50000 nM | 21.1 nM | 16.7 nM | > 50000 nM
CC1(C)N=C(c2nc(-c3ccc(C(=O)O)cn3)cs2)Nc2ccccc21 [Compound I-34] | 594 nM | 66.4 nM | 171 nM | > 50000 nM
CC1(C)N=C(c2nc(-c3ccc(C(=O)O)nc3)cs2)Nc2ccccc21 [Compound I-35, 5-(2-(4,4-dimethyl-1,4-dihydroquinazolin-2-yl)thiazol-4-yl)pyridin-2-carboxylic acid] | 1030 nM | 339 nM | 1130 nM | > 50000 nM
CC1(C)N=C(c2nc(-c3cccc(C(=O)O)c3)cs2)Nc2c(Cl)cccc21 [Compound I-36, 3-(2-(8-chloro-4,4-dimethyl-1,4-dihydroquinazolin-2-yl)thiazol-4-yl)benzoic acid] | > 50000 nM | > 50000 nM | 9960 nM | > 50000 nM
CC1(C)N=C(c2nc(-c3ccc(C(=O)O)cc3F)cs2)Nc2ccccc21 [Compound I-38, 4-(2-(4,4-dimethyl-1,4-dihydroquinazolin-2-yl)thiazol-4-yl)-3-flurobenzoic acid] | 92 nM | 12 nM | 16 nM | > 50000 nM
COc1cc(-c2csc(C3=NC(C)(C)c4ccccc4N3)n2)ccc1C(=O)O [Compound I-40, 4-(2-(4,4-dimethyl-1,4-dihydroquinazolin-2-yl)thiazol-4-yl)-2-flurobenzoic acid] | 302 nM | 34 nM | 31 nM | > 50000 nM
CC1N=C(c2ccc(-c3ccc(C(=O)O)cc3)cc2)Nc2c(Cl)cccc21 (stereo not shown) [Compound I-43, 4′-(8-chloro-4-methyl-1,4-dihydroquinazolin-2-yl)-[1.1′-biphenyl]-4-carboxylic acid] | > 50000 nM | 40800 nM | > 50000 nM | > 50000 nM
CC1(C)N=C(c2ccc(-c3ccc(C(=O)O)cc3)cc2F)Nc2c(Cl)cccc21 [Compound I-46, 4′-(8-chloro-4,4-dimethyl-1,4-dihydroquinazolin-2-yl)-3′-fluoro-[1.1′-biphenyl]-4-carboxylic acid] | > 50000 nM | 6320 nM | 48800 nM | > 50000 nM
CC1(C)N=C(c2ccc(-c3ccc(C(=O)O)cc3)cn2)Nc2c(Cl)cccc21 [Compound I-48, 4-(6-(8-chloro-4,4-dimethyl-1,4-dihydroquinazolin-2-yl)pyridin-3-yl)benzoic acid] | > 50000 nM | 426 nM | 4020 nM | > 50000 nM
CC1(C)N=C(c2ncc(-c3ccc(C(=O)O)cc3)cn2)Nc2c(Cl)cccc21 [Compound I-49, 4-(2-(8-chloro-4,4-dimethyl-1,4-dihydroquinazolin-2-yl)pyrimidin-5-yl)benzoic acid] | > 50000 nM | 41300 nM | 10900 nM | > 50000 nM
CC1(C)N=C(c2cc(-c3ccc(C(=O)O)cc3)co2)Nc2c(Cl)cccc21 [Compound I-50, 4-(5-(8-chloro-4,4-dimethyl-1,4-dihydroquinazolin-2-yl)furan-3-yl)benzoic acid] | 102 nM | 53.7 nM | 77.5 nM | > 50000 nM
